For six compounds, TGI results are on record in PubChem BioAssay (NCI).

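Protocol summary: plate cells (96-well), add compound at 5 concentrations, incubate 48 h, interpolate endpoints linearly. TGI is the concentration that stops growth completely.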 Some results are limits rather than exact numbers.

Test systems include SF-295 CNS; TK-10 renal; SN12C renal; A498 renal; IGROV1 ovarian; OVCAR-8 ovarian; SK-MEL-2 melanoma; NCI/ADR-RES ovarian; HCT-15 colon; LOX IMVI melanoma; MDA-MB-435; UACC-62 melanoma; MCF7 breast; HOP-92 NSCLC; NCI-H460 lung; NCI-H522 lung; MOLT-4 leukemia; K-562 leukemia; SK-MEL-28 melanoma; CCRF-CEM leukemia.
Holding throughout (test): inhibition of tumour cell growth, NCI panel, 48 h

In the case of `CN(C)CCNc1nc2ccccc2c2c1CCCC2`, the TGI is 31.1 µM in the test with SF-295 CNS; 29.7 µM with TK-10 renal; 89.2 µM in the test on SN12C renal; 35.8 µM with A498 renal; 38.3 µM in the test on IGROV1 ovarian; above 100 µM in the test on OVCAR-8 ovarian. Besides, the TGI in the test on SK-MEL-2 melanoma was 32.5 µM; in the test on NCI/ADR-RES ovarian it was above 100 µM; in the test with HCT-15 colon, above 100 µM; with LOX IMVI melanoma, 34.7 µM; with MDA-MB-435 it was 36.1 µM; in the test with UACC-62 melanoma, 31.1 µM. The TGI turned out to be 29.1 µM in the test with MCF7 breast; 58.3 µM with HOP-92 NSCLC; 31 µM with NCI-H460 lung; 33.1 µM in the test with NCI-H522 lung; 61.8 µM in the test on MOLT-4 leukemia; 39.9 µM in the test with K-562 leukemia. In the test on SK-MEL-28 melanoma, this compound showed a TGI of 39.6 µM.
`COC(=O)/C(=N\NC(N)=O)C(C(=O)C(=O)Nc1ccccc1OC)c1nc2ccc([N+](=O)[O-])cc2[nH]c1=O` (stereo not drawn): the TGI in the test on SF-295 CNS, with CCRF-CEM leukemia, in the test with TK-10 renal, in the test on SN12C renal, in the test with A498 renal and in the test on IGROV1 ovarian was above 100 µM each time. Further, the TGI in the test with OVCAR-8 ovarian, in the test with SK-MEL-2 melanoma, in the test on NCI/ADR-RES ovarian, in the test on HCT-15 colon, in the test on LOX IMVI melanoma and with MDA-MB-435 was above 100 µM in each case. Further, the TGI with UACC-62 melanoma, with MCF7 breast, with HOP-92 NSCLC, in the test with NCI-H460 lung, in the test on NCI-H522 lung and in the test on K-562 leukemia was above 100 µM each time. The same compound returned a TGI with SK-MEL-28 melanoma above 100 µM.
Turning to `c1ccc2c(CN3CCN(Cc4c[nH]c5ccccc45)CC3)c[nH]c2c1`, the TGI with SF-295 CNS is 31.1 µM; in the test on CCRF-CEM leukemia, above 100 µM; with TK-10 renal it was 29.1 µM; in the test with SN12C renal it was 41.9 µM; in the test on A498 renal, 27.8 µM; with IGROV1 ovarian, 27.4 µM. Besides, the TGI was 37.6 µM in the test on OVCAR-8 ovarian; 31.5 µM in the test on SK-MEL-2 melanoma; 58 µM in the test on NCI/ADR-RES ovarian; 44.4 µM with HCT-15 colon; 30.6 µM in the test with LOX IMVI melanoma; 32.4 µM in the test on MDA-MB-435. In addition, the TGI in the test with UACC-62 melanoma was found to be 29.9 µM; in the test on MCF7 breast it was 36.9 µM; in the test on HOP-92 NSCLC, 31.2 µM; in the test on NCI-H460 lung, 25.3 µM; in the test with NCI-H522 lung, 31.3 µM; in the test on K-562 leukemia, 39.7 µM. Moreover, the TGI in the test with SK-MEL-28 melanoma came out at 36.9 µM.
As for `COc1cc2c(cc1C[C@H]1[C@@H]3C[C@H]4c5c(c6ccccc6n5C)C[C@@H]([C@@H]3CO[C@]1(C)OC(C)=O)N4C)c1c(n2C)C2C[C@H]3C(C(C)=O)=COC[C@H]3[C@H](C1)N2C`, the TGI with SF-295 CNS is 10.4 µM; with CCRF-CEM leukemia it was 5.84 µM; in the test on TK-10 renal, 16.1 µM; with SN12C renal, above 25 µM; with A498 renal, above 25 µM; with IGROV1 ovarian, above 25 µM. For the same compound, the TGI in the test with OVCAR-8 ovarian is 8.83 µM; with SK-MEL-2 melanoma, 15.2 µM; in the test with NCI/ADR-RES ovarian it was 8.32 µM; in the test with HCT-15 colon, 6.25 µM; in the test with LOX IMVI melanoma it was above 25 µM; in the test with MDA-MB-435, above 25 µM. The TGI was 14.6 µM in the test on UACC-62 melanoma; above 25 µM in the test on MCF7 breast; above 25 µM in the test with HOP-92 NSCLC; 8.21 µM in the test on NCI-H460 lung; above 25 µM with MOLT-4 leukemia; above 25 µM in the test on K-562 leukemia. This compound also came in with a TGI in the test on SK-MEL-28 melanoma above 25 µM.
`FC(F)(F)c1ccc(Cc2nc3cc4ccccc4cc3[nH]2)cc1`: the TGI in the test with SF-295 CNS, in the test with CCRF-CEM leukemia, with TK-10 renal, with SN12C renal, with A498 renal and in the test with IGROV1 ovarian was above 100 µM each time. Besides, the TGI in the test on OVCAR-8 ovarian, with SK-MEL-2 melanoma, in the test with NCI/ADR-RES ovarian, in the test on HCT-15 colon, with LOX IMVI melanoma and in the test on MDA-MB-435 was above 100 µM each time. Also, the TGI was above 100 µM in the test with UACC-62 melanoma; above 100 µM in the test on MCF7 breast; 47.8 µM in the test on HOP-92 NSCLC; above 100 µM in the test with NCI-H460 lung; above 100 µM in the test with NCI-H522 lung; above 100 µM in the test with K-562 leukemia. The compound further showed a TGI in the test on SK-MEL-28 melanoma above 100 µM.
Take `O=C(NC(Cl)(C(F)(F)F)C(F)(F)F)c1ccc(F)cc1`: the TGI in the test on SF-295 CNS, in the test on CCRF-CEM leukemia, with TK-10 renal, with SN12C renal, in the test with A498 renal and with IGROV1 ovarian was above 100 µM throughout. For the same compound, the TGI with OVCAR-8 ovarian, in the test with SK-MEL-2 melanoma, with NCI/ADR-RES ovarian, in the test with HCT-15 colon, in the test on LOX IMVI melanoma and with MDA-MB-435 was above 100 µM throughout. Moreover, the TGI with MCF7 breast, with HOP-92 NSCLC, with NCI-H460 lung, with MOLT-4 leukemia, in the test with K-562 leukemia and in the test on SK-MEL-28 melanoma was above 100 µM each time.
